Laboratory results: US6140335A, “Use of mizolastine for treating inflammatory diseases associated with 5-lipoxygenase” (Sanofi-Synthelabo, priority 1997, dated 2000)

Legend:
[1] = target: T1, 5-LO obtained from a preparation of rat leukaemic basophil cells (RBL-1) (Rattus norvegicus, UniProt P12527); experiment: Inhibition of 5-LO in Rats (RBL-1 preparation); type: biochemical; conditions: rat 5-LO (RBL-1); linoleic acid; 5 min preincubation, 8 min at room temperature; absorption at 234 nm; read-out: inhibitory concentration (IC50)
T1 construct: 5-LO obtained from a preparation of rat leukaemic basophil cells (RBL-1); endogenous in cells; host or cells: RBL-1 (rat leukaemic basophil cells)
T1 sequence (P12527 1-673): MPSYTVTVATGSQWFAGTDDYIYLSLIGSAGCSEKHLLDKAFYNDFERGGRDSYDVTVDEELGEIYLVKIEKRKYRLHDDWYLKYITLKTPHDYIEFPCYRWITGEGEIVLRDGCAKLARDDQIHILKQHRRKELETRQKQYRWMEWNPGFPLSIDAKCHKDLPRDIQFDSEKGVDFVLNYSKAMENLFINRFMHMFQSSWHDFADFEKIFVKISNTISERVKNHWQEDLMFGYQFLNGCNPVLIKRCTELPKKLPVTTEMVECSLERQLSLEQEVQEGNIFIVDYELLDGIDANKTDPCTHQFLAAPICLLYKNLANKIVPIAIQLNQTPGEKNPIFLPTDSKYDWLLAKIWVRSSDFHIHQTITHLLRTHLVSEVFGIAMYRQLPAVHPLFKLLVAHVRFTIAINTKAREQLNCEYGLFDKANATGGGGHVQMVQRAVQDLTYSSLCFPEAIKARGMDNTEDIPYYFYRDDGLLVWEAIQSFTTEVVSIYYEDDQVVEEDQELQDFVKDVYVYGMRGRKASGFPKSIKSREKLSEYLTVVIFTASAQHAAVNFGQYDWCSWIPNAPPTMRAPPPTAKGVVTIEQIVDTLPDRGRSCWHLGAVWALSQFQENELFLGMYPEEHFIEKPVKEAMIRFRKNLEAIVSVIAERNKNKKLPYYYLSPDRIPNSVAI
Method: The tests were carried out according to the procedure described by R. W. Egan and P. H. Gale in J. Biol. Chem., 260, 1154-1159, 1985, with 5-LO obtained from a preparation of rat leukaemic basophil cells (RBL-1). Mizolastine is incubated with the enzyme for 5 minutes at room temperature and the reaction is initiated by addition of linoleic acid. After incubating for 8 minutes at room temperature, the reaction is stopped by addition of sodium hydroxide and the absorption is read at 234 nm in order to determine the level of 5-HETE.

[2] = target: T2, 5-LO isolated from commercial HL60 cells (Homo sapiens, UniProt P09917); experiment: Inhibition of 5-LO in Man (HL60 5-LO); type: biochemical; conditions: 5-LO from HL60 cells; arachidonic acid 0.4 μM; 10 min at room temperature; 5-HETE by RIA; read-out: inhibitory concentration (IC50)
T2 construct: 5-LO isolated from commercial HL60 cells; endogenous in cells; host or cells: HL60
T2 sequence (P09917 1-674): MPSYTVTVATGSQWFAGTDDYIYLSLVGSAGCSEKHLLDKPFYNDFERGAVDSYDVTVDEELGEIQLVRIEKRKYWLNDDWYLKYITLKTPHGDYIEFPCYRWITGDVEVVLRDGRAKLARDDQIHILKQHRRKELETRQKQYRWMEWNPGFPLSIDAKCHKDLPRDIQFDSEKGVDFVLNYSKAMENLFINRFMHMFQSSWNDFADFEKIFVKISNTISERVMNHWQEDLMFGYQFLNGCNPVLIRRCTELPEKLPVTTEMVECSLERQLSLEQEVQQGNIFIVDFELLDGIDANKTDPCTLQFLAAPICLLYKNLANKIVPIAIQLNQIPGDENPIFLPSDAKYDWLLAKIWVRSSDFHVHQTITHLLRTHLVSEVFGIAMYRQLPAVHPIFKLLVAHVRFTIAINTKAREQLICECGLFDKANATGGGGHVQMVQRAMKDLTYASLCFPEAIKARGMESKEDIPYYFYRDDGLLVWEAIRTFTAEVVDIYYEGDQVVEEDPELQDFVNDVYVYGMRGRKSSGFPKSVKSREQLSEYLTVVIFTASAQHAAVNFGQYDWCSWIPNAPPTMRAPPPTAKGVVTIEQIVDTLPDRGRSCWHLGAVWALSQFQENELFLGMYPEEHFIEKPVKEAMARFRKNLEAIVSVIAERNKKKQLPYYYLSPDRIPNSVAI
Method: Mizolastine was tested on 5-LO isolated from commercial HL60 cells. The mizolastine is incubated for 10 minutes at room temperature in the presence of arachidonic acid (0.4 μM) and 5-LO. The experiment is carried out simultaneously in the presence of nordihydrogualaretic acid as reference product. The amount of 5-HETE formed is determined by RIA (Coffrey et al., J. Biol. Chem., 267-270, 1992).

[3] = system: inflammatory oedema of rat limbs induced by the injection of AA; experiment: In vivo activity in a model of inflammation of rat limbs (oedema by injection of AA); conditions: 0.3 mg/kg orally 2 hours before AA injection; after 4 hours; plethysmography
Method: a) inflammation by injection of AA
Inflammatory oedema of rat limbs induced by the injection of AA is produced and evaluated according to the method of Di Martino et al. (Agents and actions, 21, 303-305, 1987) except that the AA concentration used is 0.3% (v/v).
The mizolastine is given orally 2 hours before the injection of AA. An AA solution, prepared at the time of use in a buffer solution (0.1 ml; 0.2 M carbonate; pH=11.2), is injected into the subplantar part of a rat's right hind limb.
The volume of the inflammatory reaction is measured by plethysmography after 1, 2, 3 and 4 hours.

[4] = system: rat rectocolitis induced by trinitrobenzenesulphonic acid (TNBS); experiment: In vivo activity in a model of inflammation of experimental colitis in rats (TNBS); conditions: 3 mg/kg orally one hour before and one day after TNBS, after 3 days, significant
Method: Mizolastine was studied in a model of rat rectocolitis induced by trinitrobenzenesulphonic acid (TNBS), according to the method described by Morris et al. (Gastroenterology, 96, 795-803, 1989).
The mizolastine is given orally (3 mg/kg) one hour before and one day after the instillation of TNBS (40 mg/kg in 50% ethanol) into the distal part of the colon. After 3 days, measurement of the macroscopic index of the damage, of the oedema/hypertrophy (weight of tissues) and of the myeloperoxidase activity, as a measure of the infiltration of the neutrophils, is carried out. Mizolastine imparts a significant reduction in the damage, in the oedema/hypertrophy (weight of tissues) and in the myeloperoxidase activity of 67%, 57% and 66% respectively at 3 mg/kg.

IC50 [1]: 4.6 µM
IC50 [2]: 16 µM
Compound: CN(c1nccc(O)n1)C1CCN(c2nc3ccccc3n2Cc2ccc(F)cc2)CC1 [mizolastine, 2-[[1-[1-[(4-fluorophenyl)methyl]-1H-benzimidazol-2-yl]-4-piperidyl]methylamino]-4-pyrimidinol]
inhibition, relative to the control, of the inflammation induced [3]: 55%
reduction in the myeloperoxidase activity ([4]; infiltration of neutrophils): 66%
reduction in the damage (macroscopic index) [4]: 67%
reduction in the oedema/hypertrophy (weight of tissues) [4]: 57%
